Source: the NIST ThermoML archive (doi:10.1021/acs.jced.7b00335)

Test: xn = mol fraction of the nth substance listed
Conditions: 100 kPa, Liquid; for viscosity: Concentric cylinders viscometry; for mass density: Vibrating tube method

O=Cc1ccccc1 [benzaldehyde] + CC(C)O
Conditions | mass density [kg/m3] | viscosity [mPa·s]
293.15 K, x1 = 0.0809 | 809.6 | 2.11
293.15 K, x1 = 0.1596 | 830.7 | 1.86
293.15 K, x1 = 0.24 | 852.5 | 1.675
293.15 K, x1 = 0.3492 | 882.3 | 1.499
293.15 K, x1 = 0.4399 | 906.4 | 1.42
293.15 K, x1 = 0.5693 | 940.8 | 1.402
293.15 K, x1 = 0.6495 | 962.2 | 1.414
293.15 K, x1 = 0.7399 | 986.2 | 1.434
293.15 K, x1 = 0.8498 | 1012.8 | 1.47
293.15 K, x1 = 0.9399 | 1033.3 | 1.502
293.15 K, x1 = 1 | 1046.3 | 1.52
298.15 K, x1 = 0.0809 | 804.3 | 1.82
298.15 K, x1 = 0.1596 | 826.4 | 1.63
298.15 K, x1 = 0.24 | 848.2 | 1.47
298.15 K, x1 = 0.3492 | 877.9 | 1.342
298.15 K, x1 = 0.4399 | 901.9 | 1.296
298.15 K, x1 = 0.5693 | 936.2 | 1.284
298.15 K, x1 = 0.6495 | 957.6 | 1.298
298.15 K, x1 = 0.7399 | 981.7 | 1.318
298.15 K, x1 = 0.8498 | 1008 | 1.354
298.15 K, x1 = 0.9399 | 1029 | 1.385
298.15 K, x1 = 1 | 1041.7 | 1.41
303.15 K, x1 = 0.0809 | 799.9 | 1.59
303.15 K, x1 = 0.1596 | 821.8 | 1.43
303.15 K, x1 = 0.24 | 843.7 | 1.33
303.15 K, x1 = 0.3492 | 873.4 | 1.233
303.15 K, x1 = 0.4399 | 897.4 | 1.197
303.15 K, x1 = 0.5693 | 931.7 | 1.187
303.15 K, x1 = 0.6495 | 953.1 | 1.196
303.15 K, x1 = 0.7399 | 976.7 | 1.216
303.15 K, x1 = 0.8498 | 1004.1 | 1.252
303.15 K, x1 = 0.9399 | 1024.1 | 1.286
303.15 K, x1 = 1 | 1037.1 | 1.31
308.15 K, x1 = 0.0809 | 795.6 | 1.41
308.15 K, x1 = 0.1596 | 817.6 | 1.29
308.15 K, x1 = 0.24 | 839.2 | 1.2
308.15 K, x1 = 0.3492 | 868.8 | 1.126
308.15 K, x1 = 0.4399 | 892.9 | 1.1
308.15 K, x1 = 0.5693 | 927.2 | 1.098
308.15 K, x1 = 0.6495 | 948.6 | 1.109
308.15 K, x1 = 0.7399 | 972.6 | 1.131
308.15 K, x1 = 0.8498 | 999.3 | 1.163
308.15 K, x1 = 0.9399 | 1019.7 | 1.197
308.15 K, x1 = 1 | 1032.4 | 1.22
313.15 K, x1 = 0.0809 | 791 | 1.23
313.15 K, x1 = 0.1596 | 813 | 1.14
313.15 K, x1 = 0.24 | 834.8 | 1.08
313.15 K, x1 = 0.3492 | 864.4 | 1.03
313.15 K, x1 = 0.4399 | 888.3 | 1.011
313.15 K, x1 = 0.5693 | 922.6 | 1.018
313.15 K, x1 = 0.6495 | 944 | 1.032
313.15 K, x1 = 0.7399 | 967 | 1.051
313.15 K, x1 = 0.8498 | 994.1 | 1.093
313.15 K, x1 = 0.9399 | 1014.6 | 1.124
313.15 K, x1 = 1 | 1027.9 | 1.15
318.15 K, x1 = 0.0809 | 786.7 | 1.08
318.15 K, x1 = 0.1596 | 808.6 | 1
318.15 K, x1 = 0.24 | 830.3 | 0.95
318.15 K, x1 = 0.3492 | 859.8 | 0.918
318.15 K, x1 = 0.4399 | 883.7 | 0.909
318.15 K, x1 = 0.5693 | 918 | 0.916
318.15 K, x1 = 0.6495 | 939.4 | 0.933
318.15 K, x1 = 0.7399 | 963.2 | 0.967
318.15 K, x1 = 0.8498 | 989.7 | 1.015
318.15 K, x1 = 0.9399 | 1010.8 | 1.058
318.15 K, x1 = 1 | 1023.4 | 1.09
323.15 K, x1 = 0.0809 | 782 | 0.97
323.15 K, x1 = 0.1596 | 803.7 | 0.913
323.15 K, x1 = 0.24 | 825.6 | 0.873
323.15 K, x1 = 0.3492 | 855.1 | 0.848
323.15 K, x1 = 0.4399 | 879.1 | 0.84
323.15 K, x1 = 0.5693 | 913.4 | 0.844
323.15 K, x1 = 0.6495 | 934.9 | 0.863
323.15 K, x1 = 0.7399 | 958.9 | 0.892
323.15 K, x1 = 0.8498 | 985 | 0.943
323.15 K, x1 = 0.9399 | 1006 | 0.991
323.15 K, x1 = 1 | 1019.1 | 1.03

O=Cc1ccccc1 [benzaldehyde] + CCC(C)O
Conditions | mass density [kg/m3] | viscosity [mPa·s]
293.15 K, x1 = 0.0813 | 824.7 | 3.08
293.15 K, x1 = 0.1623 | 842.8 | 2.62
293.15 K, x1 = 0.2401 | 860.9 | 2.3
293.15 K, x1 = 0.3517 | 886.9 | 1.97
293.15 K, x1 = 0.4404 | 908.4 | 1.791
293.15 K, x1 = 0.5612 | 938.1 | 1.648
293.15 K, x1 = 0.6519 | 961 | 1.576
293.15 K, x1 = 0.7423 | 984.4 | 1.528
293.15 K, x1 = 0.8511 | 1012.1 | 1.506
293.15 K, x1 = 0.94 | 1032.5 | 1.511
293.15 K, x1 = 1 | 1046.3 | 1.52
298.15 K, x1 = 0.0813 | 821.2 | 2.65
298.15 K, x1 = 0.1623 | 839.5 | 2.31
298.15 K, x1 = 0.2401 | 857.3 | 2.027
298.15 K, x1 = 0.3517 | 883.2 | 1.75
298.15 K, x1 = 0.4404 | 905.3 | 1.61
298.15 K, x1 = 0.5612 | 934.6 | 1.487
298.15 K, x1 = 0.6519 | 957.6 | 1.426
298.15 K, x1 = 0.7423 | 980.2 | 1.39
298.15 K, x1 = 0.8511 | 1007.3 | 1.38
298.15 K, x1 = 0.94 | 1028.6 | 1.39
298.15 K, x1 = 1 | 1041.7 | 1.41
303.15 K, x1 = 0.0813 | 816.3 | 2.23
303.15 K, x1 = 0.1623 | 834.1 | 1.984
303.15 K, x1 = 0.2401 | 852.4 | 1.78
303.15 K, x1 = 0.3517 | 878.1 | 1.561
303.15 K, x1 = 0.4404 | 899.7 | 1.438
303.15 K, x1 = 0.5612 | 929.2 | 1.322
303.15 K, x1 = 0.6519 | 952.1 | 1.279
303.15 K, x1 = 0.7423 | 975.7 | 1.255
303.15 K, x1 = 0.8511 | 1002.1 | 1.255
303.15 K, x1 = 0.94 | 1023.2 | 1.277
303.15 K, x1 = 1 | 1037.1 | 1.31
308.15 K, x1 = 0.0813 | 812.3 | 1.897
308.15 K, x1 = 0.1623 | 829.9 | 1.7
308.15 K, x1 = 0.2401 | 848.1 | 1.55
308.15 K, x1 = 0.3517 | 873.9 | 1.383
308.15 K, x1 = 0.4404 | 895.3 | 1.284
308.15 K, x1 = 0.5612 | 924.7 | 1.194
308.15 K, x1 = 0.6519 | 947.6 | 1.156
308.15 K, x1 = 0.7423 | 971.1 | 1.139
308.15 K, x1 = 0.8511 | 997 | 1.149
308.15 K, x1 = 0.94 | 1019 | 1.182
308.15 K, x1 = 1 | 1032.4 | 1.22
313.15 K, x1 = 0.0813 | 807.8 | 1.636
313.15 K, x1 = 0.1623 | 825.5 | 1.49
313.15 K, x1 = 0.2401 | 843.7 | 1.366
313.15 K, x1 = 0.3517 | 869.3 | 1.23
313.15 K, x1 = 0.4404 | 890.8 | 1.146
313.15 K, x1 = 0.5612 | 920.3 | 1.079
313.15 K, x1 = 0.6519 | 944.4 | 1.05
313.15 K, x1 = 0.7423 | 966.7 | 1.038
313.15 K, x1 = 0.8511 | 993.4 | 1.057
313.15 K, x1 = 0.94 | 1014.1 | 1.1
313.15 K, x1 = 1 | 1027.9 | 1.15
318.15 K, x1 = 0.0813 | 803 | 1.388
318.15 K, x1 = 0.1623 | 820.8 | 1.265
318.15 K, x1 = 0.2401 | 839 | 1.172
318.15 K, x1 = 0.3517 | 864.6 | 1.068
318.15 K, x1 = 0.4404 | 886.1 | 1.01
318.15 K, x1 = 0.5612 | 915.7 | 0.966
318.15 K, x1 = 0.6519 | 940 | 0.95
318.15 K, x1 = 0.7423 | 962.1 | 0.948
318.15 K, x1 = 0.8511 | 987.7 | 0.979
318.15 K, x1 = 0.94 | 1009.3 | 1.026
318.15 K, x1 = 1 | 1023.4 | 1.09
323.15 K, x1 = 0.0813 | 798.9 | 1.215
323.15 K, x1 = 0.1623 | 816.4 | 1.128
323.15 K, x1 = 0.2401 | 834.6 | 1.056
323.15 K, x1 = 0.3517 | 860 | 0.977
323.15 K, x1 = 0.4404 | 881.5 | 0.932
323.15 K, x1 = 0.5612 | 911 | 0.895
323.15 K, x1 = 0.6519 | 933.9 | 0.882
323.15 K, x1 = 0.7423 | 956 | 0.887
323.15 K, x1 = 0.8511 | 982.1 | 0.913
323.15 K, x1 = 0.94 | 1003.9 | 0.962
323.15 K, x1 = 1 | 1019.1 | 1.03
